Data published in a melting point compilation (Tetko et al.; mined from patent text by program, amines drawn as free bases though some values may be those of a salt).

| Compound | melting point |
| --- | --- |
| CCc1cccc(C)c1CNc1cc(Cn2ccnc2)cn2nc(C)nc12 | 158 °C |
| Cc1cc(I)cc2[nH]c(C(=O)O)cc(=O)c12 | 294 °C |
| O=C(O)C(O)N1C(=O)CCN1c1ccccc1 (stereo unspecified) | 127 to 129 °C |
| NCC1Cc2cc(F)cc(-c3cccnc3)c2O1 (stereo unspecified) | 88 to 90 °C |
| N#Cc1nn(-c2c(Cl)cc(C(F)(F)F)cc2Cl)c(N)c1S(=O)(=O)C(F)(F)F | 219 to 222 °C |
| O=C(N1CCNc2ccccc2C1)n1ccnc1 | 98 to 101 °C |
| CNC(=O)c1cc2c(nc(C)n2C)c2c1CCC(OC)(c1ccccc1C)O2 (stereo unspecified) | 257 to 261 °C |
| Cn1c(=O)on(-c2ccccc2)c1=O | 98 to 99 °C |
| O=C(CCl)Cc1ccc(Cl)cc1 | 40.5 to 45.5 °C |
| c1ccc(N(c2ccccc2)c2ccc(N(c3ccccc3)c3ccccc3)cc2)cc1 | 200 to 202 °C |
| O=C1Nc2ccccc2C(c2ccccc2)N1C1CCN(Cc2ccccc2)CC1 (stereo unspecified) | 199 to 200 °C |
| Cc1nc(Cc2ccccc2)c2c(c1O)COC(C(C)C)OC2 (stereo unspecified) | 193 to 194 °C |
| Cc1cc(C)c(C(=O)c2cc(C(C)(C)C)c(O)c(C(C)(C)C)c2)c(Cl)n1 | 109 to 110 °C |
| OC1CSC(Oc2cccnc2-c2ccncc2)C(O)C1O (stereo unspecified) | 129 °C |
| CN1C(=S)C(NC(=O)CCC2CCCCC2)N=C(c2ccccc2)c2ccccc21 (stereo unspecified) | 219 to 221 °C |
| CC(C)(C)c1ccc(N2CCCN(c3cc[nH]c(=S)c3C#N)CC2)cc1 | 257 to 258 °C |
| CC1(C)CCC(C)(C)c2cc(-c3cc(-c4ccc(C(=O)O)cc4)ccc3CCCO)ccc21 | 203 °C |
| CC(C)C[C@H](NC(=O)[C@H](CS)C(F)(F)F)c1nnn[nH]1 | 183 to 184 °C |
| O=C(O)C(=O)C(=O)Nc1cccc([N+](=O)[O-])c1 | 110 °C |
| CN1C[C@@H]2C[C@@]1(C(=O)c1ccc(-c3[nH]nc4c3C(=O)c3c(NC(=O)NN5CCOCC5)cccc3-4)s1)CN2 | 224 to 225 °C |
| O=C(O)CC1CCC(N2CCN(c3ccncc3)CC2)CC1 (stereo unspecified) | 225 to 227 °C |
| c1cc2c3c(cccc3c1)NCN2 | 89 to 93 °C |
| CC1(N2Cc3ccccc3C2=O)CCC(=O)NC1=O (stereo unspecified) | 231 to 232 °C |
| Cc1c(C(F)(F)F)cnn(-c2cc(OCC3CCCCC3)c(Cl)cc2F)c1=O | 90.2 °C |
| CC(C)c1cccc(C(C)C)c1NC(=O)C1CC2=C(CCCCCCCCCC2)C1=O (stereo unspecified) | 225 to 229 °C |

| Compound | melting point |
| --- | --- |
| COc1cc(OC)c(C2=CCN(C)CC2)c(OC)c1 | 112 to 114 °C |
| COc1cn(C)c(=O)c(O)n1 | 201 to 204 °C |
| CCOC(=O)c1cc2cc3[nH]c(=O)[nH]c3cc2[nH]1 | 196 to 197 °C |
| CCCNC(=S)NC1=Nc2ccc(OC(F)(F)F)cc2CS1 | 148 to 151 °C |
| Cc1ncncc1NC(=O)Nc1ccc(-n2nc(C(F)(F)F)cc2C2CC2)c(F)c1 | 198 to 202 °C |
| FS(F)(F)(F)(F)c1ccc(/C=C/c2nc(COc3ccc(-c4nc(Cn5ccnn5)co4)cc3)co2)cc1 | 172 to 174 °C |
| Cn1c(CO)cc2cccc(F)c21 | 89 to 91 °C |
| O=C(OCc1ccccc1Cl)c1ncn2c1[C@@H]1CCCN1C(=O)c1c(Cl)cccc1-2 | 192 to 193 °C |
| CN(C(=O)c1ccc2nonc2c1)C1CCC1 | 51 to 52 °C |
| Fc1cccc(F)c1-c1ccncc1 | 113 to 114 °C |
| CCCCOP(=O)(OCCCC)C(Sc1cc(F)ccc1O)=P(OCCCC)(OCCCC)OCCCC | 165 to 166 °C |
| CCOC(=O)c1cnc2n(c1=O)CCCC2CC(=O)O (stereo unspecified) | 156 to 157 °C |
| O=C1NC(=O)C(c2cn3c4c(cccc24)CCC3)C1c1ccc(OCc2ccccc2)cc1 (stereo unspecified) | 91 to 93 °C |
| Cc1cc(C)nc(NC(=O)C(N)CC(C)C)c1 (stereo unspecified) | 78 °C |
| CC(=O)Nc1cccc(C2=NNC(=O)C3CC23)c1 (stereo unspecified) | 200 to 202 °C |
| O=C(C1CCC1)N1CCC2(CC1)Cc1ccccc1O2 | 91 to 93 °C |
| CS(=O)(=O)N1CCC(Nc2nc(CCC(F)(F)F)nc(Nc3ccc(F)c(Cl)c3)n2)CC1 | 192 to 193 °C |
| CC(=O)NC1CCc2cc3c(cc2C1)OCC3O (stereo unspecified) | 254 °C |
| Cc1c(-c2ccc(C(=O)c3ccc(-c4sc5ccccc5c4C)nc3)cn2)sc2ccccc12 | 120 to 121 °C |
| O=C1NC(=O)C2(CCN(Cc3ccccc3)CC2)O1 | 291 to 294 °C |
| CCNCC1CCN(c2c(F)cc3c(=O)c(C(=O)O)cn(NC)c3c2F)C1 (stereo unspecified) | 222 to 224 °C |
| S=C1Nc2ccccc2N2CCN(c3ccccc3)CCN12 | 202 to 206 °C |
| CC(C)(C)OC(=O)[C@@H]1CCCN1C(=O)CCS | 57 to 58 °C |
| Clc1ncccc1-c1cccnc1 | 92 to 93.5 °C |

Second part, the compound after the results:

| melting point | Compound |
| --- | --- |
| 245 to 246 °C | O=C(O)c1ccc(-c2nc(-c3ccc(OC(F)(F)F)cc3)cs2)cc1 |
| 124 to 125 °C | COC(=O)c1nn(-c2cccc(C(F)(F)F)c2)c(=O)cc1OC |
| 195 to 196 °C | Cn1ncc(/C=C/C(=O)Nc2ccc(Cc3nc4ccccc4o3)cc2)c1-c1ccc(F)cc1 |
| 85 to 87 °C | COC(=O)c1ccc(Cl)cc1NC(=O)Cc1cccnc1 |
| 167 to 169 °C | c1ccc(-c2cccc(-c3nc4c5ccccc5ccn4n3)c2)cc1 |
| 50 to 51 °C | C=CCOc1cccc(C[C@H](NC(=O)OC(C)(C)C)C(=O)OC)c1 |
| 67 to 69 °C | COCc1cc(Cl)c2cccc(OC)c2n1 |
| 161 to 162 °C | CCC(C)c1ccccc1SC1=C(O)CC(c2ccccc2)(c2ccccc2)OC1=O (stereo unspecified) |
| > 200 °C | CCOC(=O)c1ccc(NC(=O)N2CCc3cc(SC)c(C(F)(F)F)cc32)cc1 |
| 175 to 180 °C | O=C(Nc1ccc(N2CCOCC2)c(C(F)(F)F)c1)c1ccc(F)c(OCc2cncc3ccccc23)c1 |
| 298 °C | COc1cc(C(=O)O)c(-n2c3ccccc3c3ccccc32)cc1C(=O)O |
| 128 to 129 °C | CC(C)(NC(=O)CCc1nccn1Cc1ccccc1)c1ccc(Cl)cc1 |
| 154 to 156 °C | CCCCc1cnc(-c2ccc(N)cc2)nc1 |
| 206 to 207 °C | O=S(=O)(Nc1cnc(-n2ccnc2)nc1NCc1ccc2c(c1)OCO2)c1ccc(Cl)cc1 |
| 150 °C | CN(C)c1ccc(C(=O)c2ccc(N)cc2)cc1 |
| 166 °C | COc1ccc2ccc(N3C(=O)c4ccccc4C3OCC(=O)N(C)C)nc2n1 (stereo unspecified) |
| 212 to 214 °C | O=C(O)COc1cccc2c1Cc1sc(S(=O)(=O)CC=Cc3ccccc3)nc1-2 |
| 260 to 262 °C | O=C(O)c1cc2ccccc2c(=O)s1 |
| 120 to 122 °C | Nc1c([N+](=O)[O-])cc(Br)c2c1CN(CCc1ccccc1)CC2 |
| 195 to 197 °C | CC(C)N(C(=O)c1ccc(OCCCCCOc2ccc(C(N)=NO)cc2)cc1O)C(C)C |
| 177 to 179 °C | CN(CC(=O)O)C(=O)C=Cc1ccccc1 |
| 120 to 122 °C | C[C@@H](O)c1nccc(N2CCc3ccc(S(=O)(=O)N(C)C)cc3C2)n1 |
| 180 to 182 °C | COc1c(Cl)ccc(-c2cc(N)c(Cl)c(C(=O)NOC3C=CCCC3)n2)c1F (stereo unspecified) |
| 55 to 58 °C | COc1nc(C(F)(F)F)cc(=O)n1-c1ccc(Cl)c(OC(C)C)c1 |
| 157 to 158 °C | COc1ccc(S(=O)(=O)N2C(=O)C(O[Si](C)(C)C)(c3ccccc3OC)c3cc(Cl)ccc32)c(OC)c1 (stereo unspecified) |
| 92 to 94 °C | COc1ccc2cc([C@H](C)C(=O)OCCC(C)(C)C)ccc2c1 |

| melting point | Compound |
| --- | --- |
| 230 to 234 °C | NC(=O)C1C=Cc2cc(Cl)ccc2N1C(=O)c1ccccc1 (stereo unspecified) |
| 152 to 153 °C | COc1ccc(Cl)cc1C(=O)N(C)CCc1ccc(CCC(=O)O)cc1 |
| 126 to 128 °C | c1cc2c3c(cccc3c1)C(NOCCCCn1ccnc1)=N2 |
| 142 to 145 °C | COC(C(=O)O)C(=O)Nc1cc(Cl)cc(Cl)c1 (stereo unspecified) |
| 120 °C | CCCC(=O)C1c2cccc(OC(=O)C(C)(C)C)c2C(=O)c2c(OC(=O)C(C)(C)C)cccc21 |
| 108 to 110 °C | Cc1ccccc1-c1cc(-c2ccc(F)cc2)c(C=C(Br)Br)c(C(C)C)n1 |
| 129 to 130 °C | CCC(=O)Nc1c(C(=O)c2cccc(Cl)c2)[nH]c2cc(Cl)ccc12 |
| 279 to 281 °C | O=C(NCc1ccc(Cl)cc1)c1cnc2c(Cl)cccc2c1O |
| 129 to 130 °C | O=C1C[C@@H]2[C@@H](/C=C/C(=O)[C@@H]3OCc4ccccc4O3)[C@H](OC(=O)c3ccccc3)C[C@@H]2O1 |
| 244 °C | Cc1cc(NC(=O)C=Cc2ccccc2)c(NC(=O)C=Cc2ccccc2)cc1C |
| 150 °C | COc1ccc(-c2ccc3c(c2)CC[C@H]2N(C)C(=O)CC[C@]32C)cc1 |
| 142 to 144 °C | CC(=O)Oc1ccc(CC(CCC(=O)O)N2C(=O)c3ccccc3C2=O)cc1 (stereo unspecified) |
| 164 to 166 °C | CC(C)(C)c1ccc(C(=O)NCc2ccc3c(c2)C(=O)N(C2CCC(=O)NC2=O)C3=O)cc1 (stereo unspecified) |
| 144 to 148 °C | O=C(NCc1ccccn1)C1=C(C(=O)Nc2cc(OC3CCCC3)c(Cl)cc2F)CCCC1 |
| 112 to 113 °C | CCN(CC)CCN(CC)C(=O)c1ccccc1Nc1ccnc2c(C(F)(F)F)cccc12 |
| 101 to 103 °C | COC=C(C(=O)OC)c1cccc([N+](=O)[O-])c1 |
| 177 to 178 °C | Nc1nc2[nH]c(CCC#Cc3ccsc3C(=O)N[C@@H](CCC(=O)O)C(=O)O)cc2c(=O)[nH]1 |
| 182 to 183 °C | CCOC(=O)C1=C(C)Nc2ccnn2C1c1ccccc1C(F)(F)F (stereo unspecified) |
| 165 to 166 °C | COC(=O)c1cccc2nc(OC)n(Cc3ccc(-c4ccccc4-c4nnn[nH]4)cc3)c12 |
| 162 to 163 °C | CCn1nc2c(N)nc3cc(OC)ccc3c2c1CCc1ccccc1 |
| 60 to 67 °C | Cc1noc(NS(=O)(=O)c2ccccc2-c2ccc(CC(C)C)cc2CO)c1C |
| 68 to 72 °C | O=C(C=Cc1ccccc1F)C=Cc1ccccc1F |
| 140 to 142 °C | C#CC(C)N(C)C(=O)Nc1ccc(Oc2cccc(Cl)n2)cc1 (stereo unspecified) |
| 275 to 278 °C | CC1C=C(C(=O)C(C#N)C(=O)Nc2ccccc2)c2cccc3c2=C1C1=CN=NC=31 (stereo unspecified) |
| 138 to 140 °C | CCOC(=O)C1Sc2ccccc2C1=O (stereo unspecified) |
| 173 to 174 °C | Nc1cc(C(=O)O)cc(SCc2ccccc2)c1-c1ccccc1 |
